Experimental data: patent US6326023A, “Synergistic anti-malarial formulation” (priority 2000, dated 2001)

Experiments:
[1] = test system: P. yoelii nigeriensis (MDR II); assay: Resistance pattern of P. yoelii nigeriensis (MDR II) strain to antimalarials/antibiotics (oral) in Swiss mice; type: in vivo
Experimental: Swiss mice weighing 20±1 to 25±g of either sex and random laboratory bred at Central Drug Research Institute, Lucknow were used. Mice were routinely infected with 1×10^5 parasitized RBC intraperitoneally using sterile citrate saline as diluent for infected blood. […] From day 4 onwards, tail blood smears were examined after Giemsa staining and percent parasitaemia and mortality was recorded. The parasite (MDR strain) was lethal for Swiss mice and mice died in 6-8 days after developing parasitaemia above 40% to 100% infection of RBC, Mortality was 100% in mice.

[2] = im; cited from earlier work
P. falciparum = details: rectal suppository, in 48-56 h; cited from earlier work
[3] = human, in vivo; cited from earlier work

## CN(C)C1C(=O)C(C(N)=O)=C(O)C2(O)C(=O)C3=C(O)c4c(O)cccc4C(C)(O)C3CC12 (stereo not shown) [Tetracycline]
[1]; 500 mg/kg × 4 days
  Parasite response: Resistant

## CCN(CC)Cc1cc(Nc2ccnc3cc(Cl)ccc23)ccc1O [Amodiaquine]
[1]; 128 mg/kg × 4 days
  Parasite response: Resistant

## C[C@H]1[C@H](OC(=O)CCC(=O)O)O[C@@H]2O[C@@]3(C)CC[C@H]4[C@H](C)CC[C@@H]1[C@@]24OO3 [artesunate]
[2]
  LD50: 475 mg/kg

## OC(c1cc(C(F)(F)F)nc2c(C(F)(F)F)cccc12)C1CCCCN1 (stereo not shown) [Mefloquine]
[1]; 128 mg/kg × 4 days
  Parasite response: Resistant

## C[C@H]1c2cccc(O)c2C(=O)C2=C(O)[C@]3(O)C(=O)C(C(N)=O)=C(O)[C@@H](N(C)C)[C@@H]3[C@@H](O)[C@@H]21 [Doxycycline]
[1]; 25 mg/kg × 4 days
  Parasite response: Resistant

## CCN(CC)CCCC(C)Nc1c2ccc(Cl)cc2nc2ccc(OC)cc12 (stereo not shown) [Mepacrine]
[1]; 128 mg/kg × 4 days
  Parasite response: Resistant

## C=C[C@H]1C[N@@]2CC[C@H]1C[C@H]2[C@H](O)c1ccnc2ccc(OC)cc12 [Quinine]
[1]; 400 mg/kg × 4 days
  Parasite response: Resistant

## O=C(O)c1cn(C2CC2)c2cc(N3CCNCC3)c(F)cc2c1=O [Ciprofloxacine]
[1]; 50 mg/kg × 4 days
  Parasite response: Resistant

## C[C@@H]1CC[C@H]2[C@@H](C)C(=O)O[C@@H]3O[C@@]4(C)CC[C@@H]1[C@]32OO4 [artemisinin]
P. falciparum
  Dose needed for complete parasite clearance: 2800 mg

## CCCCN(CCCC)CCC(O)c1cc2c(Cl)cc(Cl)cc2c2cc(C(F)(F)F)ccc12 (stereo not shown) [Halofantrine]
[1]; 32 mg/kg × 4 days
  Parasite response: Resistant
[3]
  Cardiotoxicity: increased risk of cardiotoxicity

## C=C[C@H]1C[N@@]2CC[C@H]1C[C@@H]2[C@@H](O)c1ccnc2ccc(OC)cc12 [Quinidine]
[1]; 400 mg/kg × 4 days
  Parasite response: Resistant

## CCN(CC)CCCC(C)Nc1ccnc2cc(Cl)ccc12 (stereo not shown) [Chloroquine]
[1]; 128 mg/kg × 4 days
  Parasite response: Resistant

## CN(C)C1C(=O)C(C(N)=O)=C(O)C2(O)C(=O)C3=C(O)c4c(O)cccc4C(C)(O)C3C(O)C12 (stereo not shown) [Oxytetracycline]
[1]; 500 mg/kg × 4 days
  Parasite response: Resistant

## CN(C)[C@@H]1C(O)=C(C(N)=O)C(=O)[C@@]2(O)C(O)=C3C(=O)c4c(O)ccc(Cl)c4[C@@H](O)[C@H]3C[C@@H]12 [Demeclocycline]
[1]; 500 mg/kg × 4 days
  Parasite response: Resistant

## CCn1cc(C(=O)O)c(=O)c2cc(F)c(N3CCNCC3)cc21 [Norfloxacine]
[1]; 50 mg/kg × 4 days
  Parasite response: Resistant

## CC[C@H]1OC(=O)[C@H](C)[C@@H](O[C@H]2C[C@@](C)(OC)[C@@H](O)[C@H](C)O2)[C@H](C)[C@@H](O[C@@H]2O[C@H](C)C[C@H](N(C)C)[C@H]2O)[C@](C)(O)C[C@@H](C)C(=O)[C@H](C)[C@@H](O)[C@]1(C)O [Erythromycin]
[1]; 250 mg/kg × 4 days
  Parasite response: Resistant

## COc1cc(C)c2c(Oc3cccc(C(F)(F)F)c3)c(OC)cc(NC(C)CCCN)c2n1 (stereo not shown) [WR238605]
[1]; 10 mg/kg × 7 days
  Parasite response: Resistant

## CCc1nc(N)nc(N)c1-c1ccc(Cl)cc1 [Pyrimethamine]
[1]; 16 mg/kg × 4 days
  Parasite response: Resistant
